# Reference: the supplement of paper PMC10307832
# How the values were obtained:
# Test in all cases: relative viability (nuclei count vs DMSO), 5 days (fraction); higher = more cells survive
# [1] = system: 201T
# Procedure, shortened: (§1)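 Dosing by pin tool came one day after lung cancer cell lines were seeded in 1536-well plates, using either one drug or a fixed anchor-drug dose plus five library-drug doses (not always all listed) in √10 steps. After 5 days, nuclei were counted on 4× images. Relative viability is treated-well nuclei count divided by vehicle-well nuclei count, and values are medians of duplicate plates.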
# [2] = system: COR-L23
# Procedure, shortened: as §1
# [3] = system: EPLC-272H
# Procedure, shortened: as §1
# [4] = system: H3255
# Procedure, shortened: as §1
# [5] = system: HCC-15
# Procedure, shortened: as §1
# [6] = system: LOU-NH91
# Procedure, shortened: as §1
# [7] = system: NCI-H1563
# Procedure, shortened: as §1
# [8] = system: NCI-H1650
# Procedure, shortened: as §1
# [9] = system: NCI-H1734
# Procedure, shortened: as §1
# [10] = system: NCI-H1793
# Procedure, shortened: as §1
# [11] = system: NCI-H2023
# Procedure, shortened: as §1
# [12] = system: NCI-H2170
# Procedure, shortened: as §1
# [13] = system: NCI-H2347
# Procedure, shortened: as §1
# [14] = system: NCI-H2405
# Procedure, shortened: as §1
# [15] = system: NCI-H3122
# Procedure, shortened: as §1
# [16] = system: NCI-H322M
# Procedure, shortened: as §1
# [17] = system: NCI-H441
# Procedure, shortened: as §1
# [18] = system: NCI-H520
# Procedure, shortened: as §1
# [19] = system: NCI-H647
# Procedure, shortened: as §1
# [20] = system: PC-14
# Procedure, shortened: as §1
# [21] = system: UMC-11
# Procedure, shortened: as §1
smiles,measurement,setting,value
CC(=O)O[C@@]12CO[C@@H]1C[C@H](O)[C@@]1(C)C(=O)[C@H](O)C3=C(C)[C@@H](OC(=O)[C@H](O)[C@@H](NC(=O)OC(C)(C)C)c4ccccc4)C[C@@](O)([C@@H](OC(=O)c4ccccc4)[C@H]21)C3(C)C [Docetaxel] + CS(=O)(=O)N1CCN(Cc2cc3nc(-c4cccc5[nH]ncc45)nc(N4CCOCC4)c3s2)CC1 [Pictilisib] (partner 1 µM),relative viability,[1]; first compound 0.0002 µM,0.683
same,relative viability,[1]; first compound 0.000632 µM,0.672
same,relative viability,[1]; first compound 0.002 µM,0.557
same,relative viability,[1]; first compound 0.006325 µM,0.567
same,relative viability,[1]; first compound 0.02 µM,0.289
same,relative viability,[2]; first compound 0.0002 µM,0.632
same,relative viability,[2]; first compound 0.000632 µM,0.649
same,relative viability,[2]; first compound 0.002 µM,0.42
same,relative viability,[2]; first compound 0.006325 µM,0.124
same,relative viability,[2]; first compound 0.02 µM,0.0817
same,relative viability,[3]; first compound 0.0002 µM,0.27
same,relative viability,[3]; first compound 0.000632 µM,0.198
same,relative viability,[3]; first compound 0.002 µM,0.161
same,relative viability,[3]; first compound 0.006325 µM,0.111
same,relative viability,[3]; first compound 0.02 µM,0.126
same,relative viability,[4]; first compound 0.0002 µM,0.395
same,relative viability,[4]; first compound 0.000632 µM,0.544
same,relative viability,[4]; first compound 0.002 µM,0.272
same,relative viability,[4]; first compound 0.006325 µM,0.21
same,relative viability,[4]; first compound 0.02 µM,0.195
same,relative viability,[5]; first compound 0.0002 µM,0.679
same,relative viability,[5]; first compound 0.000632 µM,0.491
same,relative viability,[5]; first compound 0.002 µM,0.226
same,relative viability,[6]; first compound 0.0002 µM,0.524
same,relative viability,[6]; first compound 0.000632 µM,0.491
same,relative viability,[6]; first compound 0.002 µM,0.38
same,relative viability,[6]; first compound 0.006325 µM,0.318
same,relative viability,[6]; first compound 0.02 µM,0.339
same,relative viability,[7]; first compound 0.0002 µM,0.662
same,relative viability,[7]; first compound 0.000632 µM,0.683
same,relative viability,[7]; first compound 0.002 µM,0.71
same,relative viability,[7]; first compound 0.006325 µM,0.564
same,relative viability,[7]; first compound 0.02 µM,0.506
same,relative viability,[8]; first compound 0.0002 µM,0.431
same,relative viability,[8]; first compound 0.000632 µM,0.289
same,relative viability,[8]; first compound 0.002 µM,0.241
same,relative viability,[8]; first compound 0.006325 µM,0.146
same,relative viability,[8]; first compound 0.02 µM,0.13
same,relative viability,[9]; first compound 0.0002 µM,0.462
same,relative viability,[9]; first compound 0.000632 µM,0.387
same,relative viability,[9]; first compound 0.002 µM,0.347
same,relative viability,[9]; first compound 0.006325 µM,0.335
same,relative viability,[9]; first compound 0.02 µM,0.213
same,relative viability,[10]; first compound 0.0002 µM,0.323
same,relative viability,[10]; first compound 0.000632 µM,0.369
same,relative viability,[10]; first compound 0.002 µM,0.279
same,relative viability,[10]; first compound 0.006325 µM,0.289
same,relative viability,[10]; first compound 0.02 µM,0.204
same,relative viability,[11]; first compound 0.0002 µM,0.213
same,relative viability,[11]; first compound 0.000632 µM,0.188
same,relative viability,[11]; first compound 0.002 µM,0.142
same,relative viability,[11]; first compound 0.006325 µM,0.11
same,relative viability,[11]; first compound 0.02 µM,0.0766
same,relative viability,[12]; first compound 0.0002 µM,0.342
same,relative viability,[12]; first compound 0.000632 µM,0.288
same,relative viability,[12]; first compound 0.002 µM,0.183
same,relative viability,[12]; first compound 0.006325 µM,0.186
same,relative viability,[13]; first compound 0.0002 µM,0.462
same,relative viability,[13]; first compound 0.000632 µM,0.564
same,relative viability,[13]; first compound 0.002 µM,0.696
same,relative viability,[13]; first compound 0.006325 µM,0.647
same,relative viability,[13]; first compound 0.02 µM,0.066
same,relative viability,[14]; first compound 0.0002 µM,0.393
same,relative viability,[14]; first compound 0.000632 µM,0.429
same,relative viability,[14]; first compound 0.002 µM,0.39
same,relative viability,[14]; first compound 0.006325 µM,0.272
same,relative viability,[14]; first compound 0.02 µM,0.182
same,relative viability,[15]; first compound 0.0002 µM,0.567
same,relative viability,[15]; first compound 0.000632 µM,0.577
same,relative viability,[15]; first compound 0.002 µM,0.396
same,relative viability,[15]; first compound 0.006325 µM,0.217
same,relative viability,[15]; first compound 0.02 µM,0.172
same,relative viability,[16]; first compound 0.0002 µM,0.433
same,relative viability,[16]; first compound 0.000632 µM,0.493
same,relative viability,[16]; first compound 0.002 µM,0.492
same,relative viability,[16]; first compound 0.006325 µM,0.381
same,relative viability,[16]; first compound 0.02 µM,0.313
same,relative viability,[17]; first compound 0.0002 µM,0.352
same,relative viability,[17]; first compound 0.000632 µM,0.32
same,relative viability,[17]; first compound 0.002 µM,0.198
same,relative viability,[17]; first compound 0.006325 µM,0.177
same,relative viability,[17]; first compound 0.02 µM,0.11
same,relative viability,[18]; first compound 0.0002 µM,0.274
same,relative viability,[18]; first compound 0.000632 µM,0.27
same,relative viability,[18]; first compound 0.002 µM,0.239
same,relative viability,[18]; first compound 0.006325 µM,0.231
same,relative viability,[18]; first compound 0.02 µM,0.157
same,relative viability,[19]; first compound 0.0002 µM,0.293
same,relative viability,[19]; first compound 0.000632 µM,0.206
same,relative viability,[19]; first compound 0.002 µM,0.138
same,relative viability,[19]; first compound 0.006325 µM,0.117
same,relative viability,[19]; first compound 0.02 µM,0.0727
same,relative viability,[20]; first compound 0.0002 µM,0.629
same,relative viability,[20]; first compound 0.000632 µM,0.376
same,relative viability,[20]; first compound 0.002 µM,0.0774
same,relative viability,[20]; first compound 0.006325 µM,0.0423
same,relative viability,[20]; first compound 0.02 µM,0.0293
same,relative viability,[21]; first compound 0.0002 µM,0.799
same,relative viability,[21]; first compound 0.000632 µM,0.835
same,relative viability,[21]; first compound 0.002 µM,0.245
same,relative viability,[21]; first compound 0.006325 µM,0.226
same,relative viability,[21]; first compound 0.02 µM,0.136
